Laboratory results: patent US20250152586A1, “PHARMACEUTICAL COMPOSITION FOR RELIEVING OR TREATING PAIN BY REGULATING CEREBELLAR GLIAL CELLS AND METHOD FOR RELIEVING OR TREATING PAIN” (Seoul National University R&DB Foundation, priority 2021, published 2025)
Where a name gives a salt, the structure may show the parent alone.

Assays:
[1] = target: T1, hM4D (Gi) expressed in cerebellar glial cells (vermis lobule IV/V) (Homo sapiens, UniProt P08173, A203G/Y113C); assay: Capsaicin-induced pain licking time with chemogenetic inhibition of cerebellar glial cells (hM4D (Gi) activated by CNO); format: in vivo, mice; conditions: CNO intraperitoneal 5 to 10 mg/kg, about 1 hour after, vs control, FIG. 2B
T1 construct: expressed in transfected cells; host or cells: mouse cerebellar glial cells (vermis lobule IV/V), transduced in vivo by virus
T1 sequence (P08173 1-479 Y113C/A203G): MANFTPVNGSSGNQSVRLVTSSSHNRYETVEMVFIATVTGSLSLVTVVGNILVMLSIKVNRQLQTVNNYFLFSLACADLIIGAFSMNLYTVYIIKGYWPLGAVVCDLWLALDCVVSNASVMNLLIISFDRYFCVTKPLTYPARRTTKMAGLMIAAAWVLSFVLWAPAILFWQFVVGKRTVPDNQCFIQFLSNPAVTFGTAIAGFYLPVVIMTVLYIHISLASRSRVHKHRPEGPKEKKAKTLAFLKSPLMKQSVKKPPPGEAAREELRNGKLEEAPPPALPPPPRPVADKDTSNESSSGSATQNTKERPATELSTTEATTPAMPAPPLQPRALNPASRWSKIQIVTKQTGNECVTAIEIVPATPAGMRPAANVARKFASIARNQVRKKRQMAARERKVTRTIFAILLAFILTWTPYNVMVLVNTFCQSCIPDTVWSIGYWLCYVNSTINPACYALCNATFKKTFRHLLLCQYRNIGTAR
Procedure: Using non-genetically modified wild-type mice, a specific chemogenetic inhibitory virus which targets cerebellar glial cells was injected. […] Therefore, CNO, an agonist capable of activating the corresponding virus, was injected intraperitoneally at a dose of 5 to 10 mg/kg. Behavioral experiments were performed about 1 hour after glial cells were inhibited (FIG. 2A).

[2] = system: cerebellar glial cell-specific alpha-1 adrenergic receptors; assay: Capsaicin-induced pain licking time after knockdown with cerebellar glial cell-specific shRNA; format: in vivo; conditions: Cre-dependent shRNA virus in Glast-Cre/ERT mice after tamoxifen, vs control; FIG. 5B
Procedure: Using non-genetically modified wild-type mice, a specific chemogenetic inhibitory virus which targets cerebellar glial cells and locus coeruleus cells was injected. To specifically remove alpha1-adrenergic receptors from cerebellar glial cells, using Glast-Cre (Tg(Slcla3-Cre/ERT) 1Nat/J), a genetically modified mouse in which Cre is expressed by tamoxifen specifically in only cerebellar glial cells, Cre was expressed by injecting tamoxifen, and then a virus that removes the alpha1-adrenergic receptor in a Cre-dependent manner was injected.
(§1) To confirm the pain pattern caused by capsaicin, the degree of pain was recorded for a total of 30 minutes, 10 minutes before the injection of capsaicin and 20 minutes after the injection of capsaicin (FIG. 1B).
As another approach to prevent the activity of cerebellar glial cells, alpha-1 adrenergic receptors were inhibited using cerebellar glial cell-specific shRNA. To specifically remove alpha1-adrenergic receptors from cerebellar glial cells, using Glast-Cre (Tg(Slcla3-Cre/ERT) 1Nat/J), a genetically modified mouse in which Cre is expressed by tamoxifen specifically in only cerebellar glial cells, Cre was expressed by injecting tamoxifen, and then a virus that removes the alpha1-adrenergic receptor in a Cre-dependent manner was injected. Glast-cre (Tg(Slcla3-cre/ERT) 1 Nat/J) mice were purchased from Jackson Labs, USA. […]

GABAA receptor = assay: Capsaicin-induced pain licking time after local injection of muscimol into the deep cerebellar nuclei; format: in vivo, mice; conditions: muscimol 100 μM, 0.5 μl, local into deep cerebellar nuclei (DCN) via cannula, 10 minutes after, vs control; FIG. 6B
Procedure: (§2) 1-2. Drug Injection For chemogenetic inhibition of cerebellar glial cells, CNO was injected intraperitoneally at a dose of 5 to 10 mg/kg. For chemogenetic inhibition of locus coeruleus cells, 0.5 μl of 1 mM C21 was directly injected into the cerebellar cortex through a cannula installed in cerebellar vermis lobule IV/V. Prazosin (100 μM, 0.5 μl) and muscimol (100 μM, 0.5 μl), which are alpha-1 adrenergic receptor inhibitors or GABAA agonists, were injected through cannulas targeting the cerebellar cortex and cerebellar nuclei, respectively.
as §1
Information processed in the cerebellar cortex converges to the cerebellar nuclei. To investigate the pain pattern induced by capsaicin when the cerebellar nuclei, the target of cerebellar output, were inhibited, the deep cerebellar nuclei (DCN) region was locally administered muscimol (100 μM, 0.5 μl), an inhibitory neurotransmitter GABAA receptor agonist, through a cannula. The licking time was measured 10 minutes after the injection when the effect of muscimol appeared (FIG. 6A).

[3] = Basic motor function, ledge test and gait test; format: in vivo, mice; conditions: vs control
Procedure: To confirm whether basic behavioral patterns were affected when the activity of cerebellar glial cells was regulated, basic movements were measured by placing the mice in a chamber measuring 40 cm in length and width (FIG. 1D).
A ledge test was first performed to measure motor coordination. […] A score closer to 3 was determined to be normal, and a score closer to 0 was determined to be abnormal motor coordination. (FIG. 1E, ledge test).
A gait test was secondly performed to measure motor coordination. An experimenter measured the mouse's walking pattern without being observed. […] A score closer to 3 was determined to be normal, and a score closer to 0 was determined to be abnormal motor coordination (FIG. 1E, gait test).

[4] = target: T2, hM4D (Gi) expressed in locus coeruleus cells (Homo sapiens, UniProt P08173, A203G/Y113C); assay: Capsaicin-induced pain licking time with chemogenetic inhibition of the axon terminals of locus coeruleus cells in the cerebellum (hM4D (Gi) activated by C21); format: in vivo, mice; conditions: 0.5 μl of 1 mM C21 into cerebellar cortex via cannula (vermis lobule IV/V), hM4D (Gi) in LC, about 10 minutes after, vs control; FIG. 3B
T2 construct: expressed in transfected cells; host or cells: mouse locus coeruleus cells, transduced in vivo by virus; agonist C21 applied at their axon terminals in the cerebellar cortex
T2 sequence (P08173 1-479 Y113C/A203G): T1 sequence (P08173 1-479 Y113C/A203G)
Procedure: as §2, §1
Using non-genetically modified wild-type mice, a specific chemogenetic inhibitory virus which targets locus coeruleus cells was injected. […] Further, in this case, to confirm that the inhibition of the axon terminals of the locus coeruleus only affected the pain pattern, basic motor function was measured using the ledge test and gait test described above in Example 1-3. […]

[5] = system: alpha-1 adrenergic receptors in cerebellar glial cells; assay: Capsaicin-induced pain licking time after local injection of prazosin into the cerebellum; format: in vivo, mice; conditions: prazosin 100 μM, 0.5 μl, local into cerebellum (vermis lobule IV/V) via cannula, about 10 minutes after, vs control; FIG. 4B
Procedure: as §2, §1
Alpha-1 adrenergic receptors in cerebellar glial cells are activated by norepinephrine. To inhibit this, prazosin (100 μM, 0.5 μl), an alpha-1 adrenergic receptor antagonist, was locally injected only into the cerebellum (vermis lobule IV/V) via a cannula. Thereafter, behavioral experiments were performed about 10 minutes after the alpha-1 adrenergic receptors were inhibited (FIG. 4A).

Molecule: C[N+]1([O-])CCN(C2=Nc3cc(Cl)ccc3Nc3ccccc32)CC1.Cl.Cl [CNO, Clozapine N-oxide (CNO) dihydrochloride]
- licking time (pain induced by capsaicin) [1]: significantly reduced

Molecule: shRNA: Cre-dependent cerebellar glial cell-specific shRNA (534-558) against alpha-1 adrenergic receptor, GAGCCACACTTAGCTAACCATTTCA (guide GAGCCACACUUAGCUAACCAUUUCA)
- licking time (pain induced by capsaicin) [2]: significantly reduced

Molecule: NCc1cc(=O)[nH]o1 [muscimol, Muscimol]
- licking time (pain induced by capsaicin) (GABAA receptor): significantly reduced
- basic motor performance (ledge test and gait test) ([3]; muscimol 100 μM, 0.5 μl, local into DCN, FIG. 6C): no significance difference

Molecule: Cl.Cl.c1ccc2c(c1)N=C(N1CCNCC1)c1ccccc1N2 [C21, DREADD agonist 21(Compound 21)]
- licking time (pain induced by capsaicin) [4]: significantly reduced
- basic motor performance (ledge test and gait test) ([3]; 0.5 μl of 1 mM C21 into cerebellar cortex, hM4D (Gi) in LC, FIG. 3C): no significance difference

Molecule: COc1cc2nc(N3CCN(C(=O)c4ccco4)CC3)nc(N)c2cc1OC [prazosin, Prazosin hydrochloride]
- licking time (pain induced by capsaicin) [5]: significantly reduced
- basic motor performance (ledge test and gait test) ([3]; prazosin 100 μM, 0.5 μl, local into cerebellum, FIG. 4C): no significance difference
